This note sets out measurements from ChEMBL document CHEMBL5321194 (J Med Chem, 2023).

Converted amounts (≈) assume the structure as drawn.

Series [1] has as its target Dual specificity protein kinase CLK2 (Homo sapiens, UniProt P49760). Description: Inhibition of human CLK2 using myelin basic protein as substrate in presence of [gamma-33p]-ATP by radiometric hotspot kinase.
Series [2] concerns the target Dual specificity protein kinase CLK3 (Homo sapiens, UniProt P49761). The series is described as follows: Inhibition of human CLK3 using myelin basic protein as substrate in presence of [gamma-33p]-ATP by radiometric hotspot kinase.
Series [3] addresses Dual specificity protein kinase CLK4 (Homo sapiens, UniProt Q9HAZ1). Description: Inhibition of human CLK4 using myelin basic protein as substrate in presence of [gamma-33p]-ATP by radiometric hotspot kinase.
The target of series [4] is T1, SRSF protein kinase 1 (Homo sapiens, UniProt Q96SB4).
T1 sequence (Q96SB4 whole entry): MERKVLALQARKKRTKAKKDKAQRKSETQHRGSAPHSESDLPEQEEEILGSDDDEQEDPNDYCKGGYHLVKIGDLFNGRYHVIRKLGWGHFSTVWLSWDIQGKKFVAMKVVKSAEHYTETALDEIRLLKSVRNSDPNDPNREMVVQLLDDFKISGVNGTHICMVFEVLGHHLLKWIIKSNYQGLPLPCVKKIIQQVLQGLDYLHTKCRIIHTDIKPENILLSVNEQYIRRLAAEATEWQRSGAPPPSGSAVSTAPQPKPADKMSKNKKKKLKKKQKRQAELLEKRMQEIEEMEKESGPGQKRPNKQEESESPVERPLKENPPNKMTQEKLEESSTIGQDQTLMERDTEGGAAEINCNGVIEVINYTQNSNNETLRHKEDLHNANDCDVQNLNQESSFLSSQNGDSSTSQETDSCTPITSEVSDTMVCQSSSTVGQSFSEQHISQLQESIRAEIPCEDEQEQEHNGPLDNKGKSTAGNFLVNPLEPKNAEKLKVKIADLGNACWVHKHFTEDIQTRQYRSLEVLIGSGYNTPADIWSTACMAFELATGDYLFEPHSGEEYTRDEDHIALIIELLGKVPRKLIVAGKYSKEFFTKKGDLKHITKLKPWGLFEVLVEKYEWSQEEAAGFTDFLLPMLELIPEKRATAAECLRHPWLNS
Series [5] deals with T2, SRSF protein kinase 2 (Homo sapiens, UniProt P78362).
Target sequence in this assay (P78362 whole entry): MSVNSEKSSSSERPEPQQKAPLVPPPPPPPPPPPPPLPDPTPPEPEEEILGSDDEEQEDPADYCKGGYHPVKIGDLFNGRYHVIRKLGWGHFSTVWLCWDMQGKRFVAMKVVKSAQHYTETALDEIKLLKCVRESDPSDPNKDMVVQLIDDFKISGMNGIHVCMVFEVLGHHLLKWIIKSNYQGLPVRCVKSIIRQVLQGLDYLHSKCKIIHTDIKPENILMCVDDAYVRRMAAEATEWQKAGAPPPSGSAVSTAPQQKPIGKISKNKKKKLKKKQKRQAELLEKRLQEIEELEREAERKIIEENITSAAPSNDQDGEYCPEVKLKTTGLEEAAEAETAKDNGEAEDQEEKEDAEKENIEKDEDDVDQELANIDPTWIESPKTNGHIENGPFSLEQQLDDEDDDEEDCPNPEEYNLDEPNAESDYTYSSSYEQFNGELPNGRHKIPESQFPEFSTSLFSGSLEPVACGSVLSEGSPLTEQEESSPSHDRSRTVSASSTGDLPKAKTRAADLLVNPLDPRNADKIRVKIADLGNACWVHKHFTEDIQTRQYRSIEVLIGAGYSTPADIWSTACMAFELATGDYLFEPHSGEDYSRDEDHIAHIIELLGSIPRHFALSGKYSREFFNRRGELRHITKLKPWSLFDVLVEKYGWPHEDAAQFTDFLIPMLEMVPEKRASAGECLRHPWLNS
The target in series [6] is T3, SRSF protein kinase 3 (Homo sapiens, UniProt Q9UPE1).
T3 sequence (Q9UPE1 whole entry): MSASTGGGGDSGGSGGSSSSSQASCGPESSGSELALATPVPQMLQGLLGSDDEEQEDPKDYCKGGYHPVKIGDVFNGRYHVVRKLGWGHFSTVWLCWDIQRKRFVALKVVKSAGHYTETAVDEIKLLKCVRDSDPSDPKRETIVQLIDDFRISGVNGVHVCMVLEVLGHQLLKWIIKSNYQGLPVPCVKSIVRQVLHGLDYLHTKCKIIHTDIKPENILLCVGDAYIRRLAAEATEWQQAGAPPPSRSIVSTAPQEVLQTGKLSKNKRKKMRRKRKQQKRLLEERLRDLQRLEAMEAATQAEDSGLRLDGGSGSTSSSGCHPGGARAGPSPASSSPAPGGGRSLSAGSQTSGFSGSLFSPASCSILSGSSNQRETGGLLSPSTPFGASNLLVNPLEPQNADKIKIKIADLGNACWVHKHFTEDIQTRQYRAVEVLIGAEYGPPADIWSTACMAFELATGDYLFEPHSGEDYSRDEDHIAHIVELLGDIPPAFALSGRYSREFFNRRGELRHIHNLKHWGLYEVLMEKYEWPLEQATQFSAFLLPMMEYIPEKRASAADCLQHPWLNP
Series [7] addresses Dual specificity tyrosine-phosphorylation-regulated kinase 1A (Homo sapiens, UniProt Q13627).
The target in series [8] is Dual specificity tyrosine-phosphorylation-regulated kinase 1B (Homo sapiens, UniProt Q9Y463).
Chain of Dual specificity tyrosine-phosphorylation-regulated kinase 1B (Q9Y463 whole entry): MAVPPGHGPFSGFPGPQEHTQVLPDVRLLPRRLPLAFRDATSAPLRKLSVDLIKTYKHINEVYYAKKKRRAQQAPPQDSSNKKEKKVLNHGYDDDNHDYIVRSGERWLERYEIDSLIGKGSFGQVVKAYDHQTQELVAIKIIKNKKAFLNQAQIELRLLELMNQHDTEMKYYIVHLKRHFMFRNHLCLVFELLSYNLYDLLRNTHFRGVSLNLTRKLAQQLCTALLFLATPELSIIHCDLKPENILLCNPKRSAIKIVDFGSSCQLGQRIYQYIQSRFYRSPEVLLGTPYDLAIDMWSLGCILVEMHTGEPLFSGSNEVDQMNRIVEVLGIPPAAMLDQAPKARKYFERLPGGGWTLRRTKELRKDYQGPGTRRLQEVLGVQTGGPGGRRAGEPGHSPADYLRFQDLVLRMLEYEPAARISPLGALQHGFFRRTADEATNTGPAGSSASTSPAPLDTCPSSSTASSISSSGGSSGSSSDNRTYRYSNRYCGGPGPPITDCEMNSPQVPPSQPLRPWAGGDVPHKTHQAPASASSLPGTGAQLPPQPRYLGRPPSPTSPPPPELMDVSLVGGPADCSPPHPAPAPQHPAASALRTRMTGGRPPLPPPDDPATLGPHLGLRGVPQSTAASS
Series [9] deals with T4, Dual specificity tyrosine-phosphorylation-regulated kinase 2 (Homo sapiens, UniProt Q92630).
T4 sequence (Q92630 whole entry): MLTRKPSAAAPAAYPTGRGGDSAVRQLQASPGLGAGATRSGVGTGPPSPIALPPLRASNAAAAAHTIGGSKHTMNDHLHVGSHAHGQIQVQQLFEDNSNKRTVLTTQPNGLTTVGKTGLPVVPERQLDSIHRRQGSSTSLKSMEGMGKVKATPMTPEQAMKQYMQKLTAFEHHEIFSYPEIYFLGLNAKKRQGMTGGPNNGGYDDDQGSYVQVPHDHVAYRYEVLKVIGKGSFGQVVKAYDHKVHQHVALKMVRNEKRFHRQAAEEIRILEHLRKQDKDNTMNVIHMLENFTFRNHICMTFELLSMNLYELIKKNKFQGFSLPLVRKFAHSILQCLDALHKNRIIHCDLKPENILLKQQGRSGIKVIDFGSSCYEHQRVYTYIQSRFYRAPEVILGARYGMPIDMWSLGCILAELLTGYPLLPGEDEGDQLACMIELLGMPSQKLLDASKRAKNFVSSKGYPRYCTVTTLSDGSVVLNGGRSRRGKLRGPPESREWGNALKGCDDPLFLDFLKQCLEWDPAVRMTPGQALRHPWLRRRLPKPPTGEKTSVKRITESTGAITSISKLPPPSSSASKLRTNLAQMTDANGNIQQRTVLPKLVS

Series [10] has as its target T5, Dual specificity tyrosine-phosphorylation-regulated kinase 3 (Homo sapiens, UniProt O43781).
T5 sequence (O43781 whole entry): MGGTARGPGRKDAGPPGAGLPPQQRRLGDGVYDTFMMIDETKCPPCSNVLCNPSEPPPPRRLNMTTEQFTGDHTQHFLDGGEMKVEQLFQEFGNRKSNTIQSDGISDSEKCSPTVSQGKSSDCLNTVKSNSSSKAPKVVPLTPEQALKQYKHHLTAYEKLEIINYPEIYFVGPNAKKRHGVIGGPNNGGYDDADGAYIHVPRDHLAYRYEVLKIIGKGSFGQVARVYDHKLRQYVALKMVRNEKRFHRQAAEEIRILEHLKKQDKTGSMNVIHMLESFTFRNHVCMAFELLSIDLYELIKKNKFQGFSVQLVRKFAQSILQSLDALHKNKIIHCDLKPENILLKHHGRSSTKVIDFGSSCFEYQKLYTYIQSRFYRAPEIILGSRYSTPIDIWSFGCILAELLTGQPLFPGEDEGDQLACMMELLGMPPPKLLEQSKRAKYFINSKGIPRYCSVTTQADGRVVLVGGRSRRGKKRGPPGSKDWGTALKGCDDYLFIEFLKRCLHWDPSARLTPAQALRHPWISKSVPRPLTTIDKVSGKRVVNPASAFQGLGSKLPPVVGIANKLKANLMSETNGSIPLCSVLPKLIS

The target in series [11] is Dual specificity protein kinase CLK1 (Homo sapiens, UniProt P49759). The series is described as follows: Inhibition of human CLK1 using myelin basic protein as substrate in presence of [gamma-33p]-ATP by radiometric hotspot kinase.
Chain of Dual specificity protein kinase CLK1 (P49759 whole entry): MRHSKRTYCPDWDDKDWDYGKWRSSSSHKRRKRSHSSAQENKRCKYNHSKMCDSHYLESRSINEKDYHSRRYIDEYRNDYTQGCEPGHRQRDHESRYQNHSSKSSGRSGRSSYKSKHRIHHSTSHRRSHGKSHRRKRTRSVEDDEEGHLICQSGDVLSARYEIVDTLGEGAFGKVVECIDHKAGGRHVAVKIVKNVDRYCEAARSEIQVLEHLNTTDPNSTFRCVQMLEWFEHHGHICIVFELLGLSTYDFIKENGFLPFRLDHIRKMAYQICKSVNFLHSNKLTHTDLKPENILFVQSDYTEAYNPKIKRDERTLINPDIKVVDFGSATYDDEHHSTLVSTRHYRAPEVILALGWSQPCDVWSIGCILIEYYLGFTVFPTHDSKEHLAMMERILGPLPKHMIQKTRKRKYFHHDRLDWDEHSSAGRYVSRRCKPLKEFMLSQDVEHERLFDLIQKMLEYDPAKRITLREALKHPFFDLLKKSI
Series [12] has as its target T3, SRSF protein kinase 3. The source holds these as a separate data set.
Description: Inhibition of N-terminal nLuc-fused SRPK3 (unknown origin) transfected in intact HEK293T cells by NanoBRET assay
Series [13] deals with T2, SRSF protein kinase 2. This is another data set of the same source.
Target sequence in this assay (P78362 whole entry): as the sequence (P78362 whole entry) above
Description: Inhibition of N-terminal nLuc-fused SRPK2 (unknown origin) transfected in lysed HEK293T cells by NanoBRET assay
The target of a further series is Focal adhesion kinase 1 (Homo sapiens, UniProt Q05397).
Series [14] in a line: Thermodynamic solubility of the compound in phosphate buffer at pH 7.4.
Series [15] is described as follows: Metabolic stability in human liver microsomes assessed as intrinsic clearance. (Microsomes from liver hold many membrane-bound enzymes, among them those of drug oxidation.)
Series [16] can be described thus: Metabolic stability in mouse liver microsomes assessed as intrinsic clearance.
The nature of series [17]: Clearance in human hepatocytes measured per million of cells.
Series [18] in a line: Clearance in mouse hepatocytes measured per million of cells.
Series [19] can be described thus: Apparent permeability in human Caco-2 cells. (Passage across Caco-2 layers is used to estimate intestinal permeability.)
Series [20] in a line: Efflux ratio of apparent permeability in human Caco-2 cells.
The nature of another series: physchem. The conditions noted are these: phosphate buffer, pH 7.4.
For series [21], the target named is T1, SRSF protein kinase 1. The conditions noted are these: time 10.0 min.
The target of series [22] is T2, SRSF protein kinase 2. The conditions noted are these: time 10.0 min.
Target sequence in this assay (P78362 whole entry, looked up): as the sequence (P78362 whole entry) above
Series [23] has as its target T3, SRSF protein kinase 3. The conditions noted are these: time 10.0 min.
In series [24] the target is T1, SRSF protein kinase 1. Description: Inhibition of C-terminal nLuc-fused SRPK1 (unknown origin) transfected in intact HEK293T cells by NanoBRET assay.

Chain of Dual specificity protein kinase CLK2 (P49760 whole entry): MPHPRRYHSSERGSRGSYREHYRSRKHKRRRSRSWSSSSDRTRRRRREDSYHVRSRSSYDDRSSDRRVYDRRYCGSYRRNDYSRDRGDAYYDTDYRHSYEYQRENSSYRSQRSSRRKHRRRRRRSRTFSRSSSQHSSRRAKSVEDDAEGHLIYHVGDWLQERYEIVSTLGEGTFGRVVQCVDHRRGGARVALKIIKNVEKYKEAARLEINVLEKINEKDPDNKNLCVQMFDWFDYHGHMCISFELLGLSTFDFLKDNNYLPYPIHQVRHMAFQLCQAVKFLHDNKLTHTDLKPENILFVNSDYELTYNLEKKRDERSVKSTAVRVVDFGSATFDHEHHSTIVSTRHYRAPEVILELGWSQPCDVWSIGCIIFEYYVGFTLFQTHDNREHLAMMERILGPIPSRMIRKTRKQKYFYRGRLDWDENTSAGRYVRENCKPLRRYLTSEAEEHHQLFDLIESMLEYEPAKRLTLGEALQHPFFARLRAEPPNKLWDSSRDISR
Chain of Dual specificity protein kinase CLK3 (P49761 whole entry): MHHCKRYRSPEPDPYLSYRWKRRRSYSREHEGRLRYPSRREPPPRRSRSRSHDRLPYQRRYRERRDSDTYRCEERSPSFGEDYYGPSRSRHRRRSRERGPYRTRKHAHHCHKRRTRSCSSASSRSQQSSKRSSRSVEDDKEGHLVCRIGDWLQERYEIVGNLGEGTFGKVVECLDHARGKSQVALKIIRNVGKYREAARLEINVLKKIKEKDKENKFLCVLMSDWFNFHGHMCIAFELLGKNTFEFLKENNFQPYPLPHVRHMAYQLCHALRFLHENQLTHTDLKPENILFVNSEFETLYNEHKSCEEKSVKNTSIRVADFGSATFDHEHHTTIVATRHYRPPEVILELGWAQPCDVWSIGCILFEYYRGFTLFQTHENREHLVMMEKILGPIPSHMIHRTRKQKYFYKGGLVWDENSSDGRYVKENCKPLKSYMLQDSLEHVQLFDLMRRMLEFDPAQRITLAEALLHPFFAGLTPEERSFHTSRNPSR
Chain of Dual specificity protein kinase CLK4 (Q9HAZ1 whole entry): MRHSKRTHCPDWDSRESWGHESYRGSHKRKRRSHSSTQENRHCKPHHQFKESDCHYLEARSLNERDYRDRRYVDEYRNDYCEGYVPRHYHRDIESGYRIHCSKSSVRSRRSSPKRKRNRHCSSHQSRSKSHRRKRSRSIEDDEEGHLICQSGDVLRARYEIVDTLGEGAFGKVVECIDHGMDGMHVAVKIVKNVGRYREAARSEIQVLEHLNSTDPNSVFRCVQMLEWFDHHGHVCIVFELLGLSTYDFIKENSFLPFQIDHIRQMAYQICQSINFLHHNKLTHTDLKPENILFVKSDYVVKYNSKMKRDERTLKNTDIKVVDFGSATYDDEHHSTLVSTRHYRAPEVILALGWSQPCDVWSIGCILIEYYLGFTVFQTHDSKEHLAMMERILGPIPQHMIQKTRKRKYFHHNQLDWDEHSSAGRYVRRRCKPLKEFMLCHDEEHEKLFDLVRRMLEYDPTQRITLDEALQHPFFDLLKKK
Description for Focal adhesion kinase 1: Inhibition of N-terminal NanoLuc-tagged full length FAK (unknown origin) transfected in HEK293T cells pre-incubated with compound for 2 hrs followed by Nano-Glo substrate addition by NanoBRET analysis

Regarding `CCc1cc2c(cc1-c1cccc(S(=O)(=O)F)c1)C(C)(C)c1[nH]c3cc(C#N)ccc3c1C2=O`, the IC50 was 0.92 µM in [1]; greater than 30 µM in series [2]; 159 nM in [3]; 1.68 nM at SRSF protein kinase 1 [4]; 2.54 nM at SRSF protein kinase 2 [5]; 4.81 nM at SRSF protein kinase 3 [6]. For the same molecule, the IC50 in [7] was determined as 225 nM; in [8], 293 nM; in [9], 5.72 µM; in [10], 6.78 µM.

In the case of `O=C(Nc1cc(C(F)(F)F)ccc1N1CCN(Cc2ccccn2)CC1)c1ccc(-c2ccncc2)o1`, the concentration for half-maximal inhibition (IC50) in [11] was 0.839 µM; in [1], 5.7 µM; in series [2], greater than 10 µM; in series [3] it was 266 nM; against SRSF protein kinase 2 [5] it was 256 nM; against SRSF protein kinase 3 [6] it was 166 nM. In addition, the IC50 in [7] is 1580 nM; in [8], 1840 nM; in [9], greater than 10 µM; in series [10], greater than 10 µM. The results for the EC50 on SRSF protein kinase 3 [12] and on SRSF protein kinase 2 [13] were 6.15 µM and 648 nM, respectively.

The molecule `c1ccc(-c2nn[nH]n2)nc1` registered a half-maximal effective concentration (EC50) at Focal adhesion kinase 1 of 253 µM.

For the molecule `c1ccc(-c2nc3ccccc3[nH]2)nc1`, the concentration for a half-maximal effect (EC50) at Focal adhesion kinase 1 worked out at 103 µM.

In series [14], `CN(c1ncccc1CNc1ccnc(-c2cc3cc(Cl)ccc3[nH]2)n1)S(C)(=O)=O` displayed a solubility (thermodynamic) of less than 1 µg/mL. Further, the CLint in series [15] was 771 µL/min/mg; in series [16], 784 µL/min/mg. For the same molecule, the intrinsic clearance (hepatocyte CLint) in series [17] came out at 156 µL/min/1e6 cells; in series [18] it was 1100 µL/min/1e6 cells. Besides, the apparent permeability (Papp) in series [19] is 2 ×10⁻⁶ cm/s. Also, the efflux ratio in [20] turned out to be 1.6. The 50% inhibitory concentration (IC50) against SRSF protein kinase 1 [4] and against SRSF protein kinase 2 [5] was greater than 10000 nM throughout. In the series “physchem”, this molecule came in with a solubility (kinetic) at 2 h of 2.3 µM (≈ 1.02 µg/mL).

`CN(c1ncccc1CNc1ccnc(-c2nc3c(F)c(Cl)ccc3[nH]2)n1)S(C)(=O)=O` yielded a solubility (thermodynamic) in series [14] of less than 1 µg/mL. Also, the CLint in series [15] was found to be 504 µL/min/mg; in series [16], 196 µL/min/mg. The figures for the hepatocyte CLint in series [17] and in series [18] were 51 µL/min/1e6 cells and 354 µL/min/1e6 cells, respectively. In [19], the apparent permeability coefficient (Papp) was found to be 7.2 ×10⁻⁶ cm/s. Moreover, the half-inhibitory concentration (IC50) in series [11] was greater than 10 µM; in [1], greater than 10 µM; in [2], greater than 10 µM; in series [3] it was greater than 10000 nM; in series [7] it was greater than 10000 nM; in series [8], greater than 10000 nM. The half-inhibitory concentration (IC50) in series [9] and in series [10] was greater than 10 µM in each case. Further, the thermal shift (ΔTm) at SRSF protein kinase 1 [21] was 9.1 °C; on SRSF protein kinase 2 [22], 4 °C; on SRSF protein kinase 3 [23], 9.6 °C. Moreover, in “physchem”, the solubility (kinetic) at 2 h is less than 2 µM.

As for `O=C(Nc1cc(C(F)(F)F)ccc1N1CCCCC1)c1ccncc1`, the EC50 at SRSF protein kinase 1 [24] came out at 2360 nM; at SRSF protein kinase 3 [12], 0.398 µM; at SRSF protein kinase 2 [13] it was 2560 nM. For the same molecule, the IC50 in series [11] was greater than 10 µM; in [1], greater than 10 µM; in series [2], greater than 10 µM; in [3], greater than 10000 nM; against SRSF protein kinase 1 [4] it was 83 nM; against SRSF protein kinase 2 [5], 1510 nM. Also, the concentration for half-maximal inhibition (IC50) against SRSF protein kinase 3 [6] is 27 nM; in series [7] it was greater than 10000 nM; in [8] it was greater than 10000 nM; in series [9], greater than 10 µM; in series [10], greater than 10 µM.

A word on the IC50: it is the concentration needed to halve the response being measured. As a reminder, the EC50 is the concentration giving half of the maximal effect. The thermodynamic solubility is solubility found after equilibrating the solid with the medium. The term hepatocyte CLint denotes the capacity of the preparation to metabolise the compound, expressed as a volume cleared per time. Higher therefore signals rapid turnover. The term Papp denotes the rate of passage across a membrane or cell layer, normalised by area and donor concentration. As a reminder, the efflux ratio is a quotient of directional permeabilities that is used to spot active efflux. One may read the solubility (kinetic) as the concentration staying in solution when a stock, usually in DMSO, is diluted into the medium. The ΔTm is the shift of the melting midpoint relative to a reference.
